From patent publication US20050042283A1, “Histamine and CCK2/gastrin receptor blockade in the treatment of acid-peptic disease and cancer” (UNIVERSITY OF MASSACHUSETTS, priority 2003, published 2005)

What was measured:
[1] = system: ECL cell; settings: rats; Poynter et al.; cited from earlier work
[2] = system: H. felis-infected INS-GAS mice; test: Gastric mucosa histological evaluation and scoring; assay type: in vivo; settings: omeprazole study, 3 months; scale 0 to 4; n = 4
Excerpt: The insulin-gastrin (INS-GAS) transgenic mice (FVB/N background) have been described previously (Wang, T. C. et al., 2000; Wang T. C. et al., 1993) and were free of specific pathogens. Animals were housed in microisolator, solid-bottomed polycarbonate cages, fed a commercially prepared pelleted diet, and given water ad libitum. One hundred twenty four (124) male INS-GAS mice at 2 or 3 months of age were inoculated with Helicobacter felis (ATCC 49179) as previously described (Wang, T. C. et al., 2000). Infection status was confirmed at 14 weeks and 26 weeks post inoculation by enzyme-linked immunosorbent assay (ELISA) to measure immunoglobulin IgG antibody to H. felis, and by quantitative real-time PCR assays of gastric corpus tissue at necropsy as described below. All experiments were approved by the Institutional Animal Care and Use Committee of University of Massachusetts Medical School.
Mice in group III were treated orally with the histamine H2 receptor antagonist loxtidine (in drinking water) at a dose of 0.5 g/L, while group IV mice received both drugs. For the 3 months drug study of inhibitory effects on maximal acid secretion, gastric atrophy, hyperplasia and dysplasia, 8 mice were prepared for each group. For the 6 months drug study of inhibitory effects on gastric carcinogenesis, 17 mice were prepared for each group.
The proton pump inhibitor omeprazole was purchased from Sigma (St. Louis Mo.) and dissolved in dimethylsulfoxide (DMSO)/PEG300, a 1:1 mixture at the concentration of 40 mg/ml, and injected intraperitoneally daily at the dose of […] (=350 micromole/kg) for 3 months. Twenty four (24) mice were divided into four groups. Mice in group A were controls treated with vehicle only, whereas group B mice were treated with omeprazole alone. Group C and D mice were treated with combination of omeprazole and YF476 or loxtidine, respectively.
At necropsy, linear strips extending from the squamocolumnar junction through the proximal duodenum were fixed in 10% neutral-buffered formalin, paraffin-embedded, cut at 5 microns, and stained with hematoxylin and eosin. Indices of injury in the gastric cardia/corpus and antrum were scored on an ordinal scale from 0 to 4 in increments of 0.5 by a single veterinary pathologist (A.B.R.) blinded to treatment groups. Paraffin-embedded sections were also stained with the Warthin-Starry silver staining method for detection of H.felis as previously described (Fox, J. G. et al., 2003).

[3] = target: T1, CCK-B (Rattus norvegicus, UniProt P30553); settings: reportedly; Lindstrom et al 1999; cited from earlier work
T1 sequence (P30553 1-452): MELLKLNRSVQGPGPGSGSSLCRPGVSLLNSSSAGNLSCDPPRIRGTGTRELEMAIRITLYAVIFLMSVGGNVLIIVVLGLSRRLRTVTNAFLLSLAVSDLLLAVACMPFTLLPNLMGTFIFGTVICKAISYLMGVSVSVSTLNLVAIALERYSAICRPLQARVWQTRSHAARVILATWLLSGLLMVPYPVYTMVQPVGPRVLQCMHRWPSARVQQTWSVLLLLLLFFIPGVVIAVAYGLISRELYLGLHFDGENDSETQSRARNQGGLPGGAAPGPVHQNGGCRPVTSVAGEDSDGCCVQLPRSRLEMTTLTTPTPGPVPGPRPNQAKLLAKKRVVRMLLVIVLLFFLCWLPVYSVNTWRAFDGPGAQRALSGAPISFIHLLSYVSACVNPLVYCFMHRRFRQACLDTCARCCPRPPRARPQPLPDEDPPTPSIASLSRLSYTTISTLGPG

COc1ccc2[nH]c([S+]([O-])Cc3ncc(C)c(OC)c3C)nc2c1 (stereo not drawn) [Omeprazole alone]
Duration of administration after which ECL cell hyperplasia was seen [1]: 28 days
Corpus histological score: Atrophy [2]: 3.13 ± 0.25
Corpus histological score: Dysplasia [2]: 1.38 ± 0.48
Corpus histological score: Hyperplasia [2]: 2.75 ± 0.50
Corpus histological score: Inflammation [2]: 1.88 ± 0.63a

Cc1cccc(NC(=O)N[C@@H]2N=C(c3ccccc3)c3ccccc3N(CC(=O)c3ccccc3C)C2=O)c1 [YM022]
Potency relative to YF476 [3]: about 5 times
